Where two headings read alike, the source gives them in different places.
Tests used:
[1] = cited from earlier work
p-glycoprotein (PGP) = test system: p-glycoprotein (PGP); set-up: method as in PMID 28256516; conditions: cited from earlier work
[2] = cited from earlier work; remark: listed apart in the source
[3] = Cerebrospinal fluid drug concentration at end of dosing interval (Ctrough), HPLC–UV, patients with CML; format: in vivo, human; conditions: for Cerebrospinal fluid concentrations, median (IQR): all sampled patients with CML on the drug
[4] = Plasma drug concentration at end of dosing interval (Ctrough), HPLC–UV, patients with CML; conditions: for Plasma concentrations, median (IQR): all sampled patients with CML on the drug
[5] = test system: breast-cancer resistance protein (BRCP); set-up: method as in PMID 28256516; conditions: cited from earlier work
[6] = cited from earlier work; remark: listed apart in the source
BCR–-ABL kinase = conditions: higher than imatinib; cited from earlier work

## Cc1nc(Nc2ncc(C(=O)Nc3c(C)cccc3Cl)s2)cc(N2CCN(CCO)CC2)n1 [Dasatinib]
[1]
  Average half-life: 1.3 to 5 h
  Distribution volume: > 3 L/kg
[1]; oral
  Time of concentration peak after administration: 0.5 to 3 h
p-glycoprotein (PGP)
  Substrate of PGP: substrate
[2]
  Blood–brain barrier crossing: ability to cross the blood–brain barrier
[3]
  Cerebrospinal fluid concentrations, median (IQR): 0.11 (0.06–0.32) µg/mL
[3]; listed as dasatinib
  Cerebrospinal fluid concentrations, median (IQR): 0.11 µg/mL
[3]; paediatric patients, N = 36
  Median CSF level, paediatrics: 0.11 µg/mL
[4]; adult patients, N = 3
  Median plasma concentration, adults: 0.4 µg/mL
[4]
  Plasma concentrations, median (IQR): 0.06 (0.03–0.33) µg/mL
[4]; listed as dasatinib
  Plasma concentrations, median (IQR): 0.06 µg/mL
[4]; paediatric patients, N = 36
  Median plasma concentration, paediatrics: 0.05 µg/mL
[5]
  Substrate of BCRP: substrate
[6]; adults with CML who are imatinib-resistant/intolerant
  Patients with drug-related pulmonary hypertension: 2%
[6]; newly diagnosed adults with CML
  Patients with drug-related pulmonary hypertension: 5%

## Cc1ccc(NC(=O)c2ccc(CN3CCN(C)CC3)cc2)cc1Nc1nccc(-c2cccnc2)n1 [Imatinib]
[1]; oral
  Time of plasma peak: 2 to 4 h
[2]
  Blood–brain barrier crossing: ability to cross the blood–brain barrier

## Cc1cn(-c2cc(NC(=O)c3ccc(C)c(Nc4nccc(-c5cccnc5)n4)c3)cc(C(F)(F)F)c2)cn1 [Nilotinib]
[1]
  Average half-life: approximately 15 h
[1]; oral
  Bioavailability: approximately 30%
  Time of concentration peak after administration: 3 h
BCR–-ABL kinase
  Strength of inhibition of tyrosine kinase protein's activity versus imatinib: 20–50 times
[4]
  Plasma concentrations, median (IQR): 0.19 (0.16–0.22) µg/mL
[4]; two adult male patients
  Mean plasma concentration: 190 ng/mL

## Cc1ccc(C(=O)Nc2ccc(CN3CCN(C)CC3)c(C(F)(F)F)c2)cc1C#Cc1cnc2cccnn12 [Ponatinib]
[1]
  Half-life: approximately 24 h
[1]; oral
  Time of peak concentration after administration: ≤ 6 h
[3]
  Cerebrospinal fluid concentrations, median (IQR): 0.65 (0.18–1.65) µg/mL
[3]; listed as ponatinib
  Cerebrospinal fluid concentrations, median (IQR): 0.65 µg/mL
